In assay [1] the target is human dopamine D2 receptor (hD2R) (Homo sapiens, UniProt P14416). The assay can be described thus: Human D2 receptor binding assay ([^3H]-Spiperone). As to conditions: CHO cells expressing hD2R, geometric mean of 2-5 determinations unless marked b (single determination). How it is done: (§1) Human D2 Receptor and Human D3 Receptor Binding Assays:
(§2) These determined ligand and tissue concentrations were utilized in time course studies to determine linearity and equilibrium conditions for binding. […] The hD2R assay buffer contains 50 mM Tris (pH 7.4 @ 37° C.), 100 mM NaCl and 1 mM MgCl2. The hD3R assay buffer consists of 50 mM Tris (pH 7.4 at 37° C.), 120 mM NaCl, 5 mM MgCl2, 5 mM KCl and 2 mM CaCl2. Competitive binding experiments were initiated by the addition of 200 μL of the respective cell homogenate to 96-well plates containing […] test drugs (10 concentrations using ½ log dilutions) and 50 μL of ^3H-radioligand for a final volume of 250 μL. Non-specific binding was determined by radioligand binding in the presence of a saturating concentration of Haldol (10 μM). After the 20 minute incubation at 37° C., assay samples were rapidly filtered through Unifilter-96 GF/B PEI-coated filter plates and rinsed with ice-cold 50 mM Tris buffer (pH 7.4 at 4° C.). […] The IC50 value (concentration at which 50% inhibition of specific binding occurs) was calculated by linear regression of the concentration-response data in ActivityBase. Ki values were then calculated according to the Cheng-Prusoff equation:
(§3) [formula] where [L]=concentration of free radioligand and Kd=dissociation constant of radioligand for D3 receptor or D2 receptor.

Assay [2] deals with human dopamine D3 receptor (hD3R) (Homo sapiens, UniProt P35462). The assay can be described thus: Human D3 receptor binding assay ([^3H]-7-OH-DPAT). As to conditions: CHO cells expressing hD3R, geometric mean of 2-5 determinations unless marked b (single determination), read-out: hD3 in CHO cells Ki. How it is done:
as §1, §2, §3

Usually Ki stands for the equilibrium dissociation constant of an inhibitor or competing ligand from its target.

Chain of human dopamine D3 receptor (hD3R) (P35462 whole entry): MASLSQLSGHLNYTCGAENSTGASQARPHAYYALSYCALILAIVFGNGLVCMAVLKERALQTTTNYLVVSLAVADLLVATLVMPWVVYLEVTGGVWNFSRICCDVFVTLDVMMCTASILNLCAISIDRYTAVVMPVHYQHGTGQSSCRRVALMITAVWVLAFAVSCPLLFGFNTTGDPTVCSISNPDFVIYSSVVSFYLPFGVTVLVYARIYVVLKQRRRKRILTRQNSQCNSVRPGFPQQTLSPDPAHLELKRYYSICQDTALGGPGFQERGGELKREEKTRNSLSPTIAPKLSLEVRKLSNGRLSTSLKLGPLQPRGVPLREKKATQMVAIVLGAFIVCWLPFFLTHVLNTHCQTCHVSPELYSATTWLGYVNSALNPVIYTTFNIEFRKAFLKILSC
Chain of human dopamine D2 receptor (hD2R) (P14416 whole entry): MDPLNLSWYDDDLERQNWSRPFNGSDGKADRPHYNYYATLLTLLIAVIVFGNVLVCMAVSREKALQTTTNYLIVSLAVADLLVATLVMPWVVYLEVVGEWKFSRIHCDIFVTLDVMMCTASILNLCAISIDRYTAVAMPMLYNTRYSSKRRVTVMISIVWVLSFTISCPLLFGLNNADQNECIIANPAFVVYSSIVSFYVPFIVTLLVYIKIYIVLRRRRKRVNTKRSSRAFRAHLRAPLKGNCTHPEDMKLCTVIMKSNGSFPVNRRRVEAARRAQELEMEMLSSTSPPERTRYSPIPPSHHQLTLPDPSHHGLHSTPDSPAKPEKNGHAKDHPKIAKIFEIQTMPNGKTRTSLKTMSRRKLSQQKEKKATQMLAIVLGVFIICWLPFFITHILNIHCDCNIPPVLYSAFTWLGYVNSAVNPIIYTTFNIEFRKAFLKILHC

`CCc1nc2c(cc1NS(=O)(=O)c1ccc([C@H]3CCCCO3)cc1)CCN(C)CC2` [Example 140, N-(2-ethyl-7-methyl-6,7,8,9-tetrahydro-5H-pyrido[2,3-d]azepin-3-yl)-4-[(2R)-tetrahydro-2H-pyran-2-yl]benzenesulfonamide]: the Ki in assay [1] was determined as 3300 nM; in assay [2], 27.5 nM.
On to `COc1nc2c(cc1NS(=O)(=O)c1ccc([C@H]3C[C@H](OC)C3)cc1)CCN(C)CC2` [Example 76, 4-(trans-3-methoxycyclobutyl)-N-(2-methoxy-7-methyl-6,7,8,9-tetrahydro-5H-pyrido[2,3-d]azepin-3-yl)benzenesulfonamide], for which the Ki in assay [1] came to 203 nM; in assay [2] it was 1.28 nM.
On to `CCN1CCc2cc(NS(=O)(=O)c3ccc4c(c3)CCCO4)c(OC)nc2CC1` [Example 58, N-(7-ethyl-2-methoxy-6,7,8,9-tetrahydro-5H-pyrido[2,3-d]azepin-3-yl)-3,4-dihydro-2H-chromene-6-sulfonamide], for which the Ki came to 760 nM in assay [1] and 4.4 nM in assay [2].
The like results for `COc1nc2c(cc1NS(=O)(=O)c1ccc(C3CCOCC3)cc1)CCN(C)CC2` [Example 4, N-(2-Methoxy-7-methyl-6,7,8,9-tetrahydro-5H-pyrido[2,3-d]azepin-3-yl)-4-(tetrahydro-2H-pyran-4-yl)benzenesulfonamide] were, in that order, 104 nM and 1.53 nM.
Regarding `COc1nc2c(cc1NS(=O)(=O)c1ccc([C@H]3C[C@@H](OC)C3)cc1)CCN(C)CC2` [Example 81, 4-(cis-3-methoxycyclobutyl)-N-(2-methoxy-7-methyl-6,7,8,9-tetrahydro-5H-pyrido[2,3-d]azepin-3-yl)benzenesulfonamide], the values for the Ki in assay [1] and in assay [2] were 311 nM and 1.19 nM, respectively.
The like results for `CCN1CCc2cc(NS(=O)(=O)c3ccc(C4CCOCC4)cc3)c(OC)nc2CC1` [Example 57, N-(7-ethyl-2-methoxy-6,7,8,9-tetrahydro-5H-pyrido[2,3-d]azepin-3-yl)-4-(tetrahydro-2H-pyran-4-yl)benzenesulfonamide] were, in that order, 229 nM and 3.14 nM.
For `COc1nc2c(cc1NS(=O)(=O)c1ccc(C3(F)CCC(OC)CC3)cc1)CCN(C)CC2` (single isomer, unassigned) [Example 93, 4-(trans-1-fluoro-4-methoxycyclohexyl)-N-(2-methoxy-7-methyl-6,7,8,9-tetrahydro-5H-pyrido[2,3-d]azepin-3-yl)benzenesulfonamide] the same measures were 366 nM and 2.03 nM.
Regarding `COc1nc2c(cc1NS(=O)(=O)c1ccc(C(C)C)cc1)CCN(C)CC2` [Example 54, N-(2-methoxy-7-methyl-6,7,8,9-tetrahydro-5H-pyrido[2,3-d]azepin-3-yl)-4-(propan-2-yl)benzenesulfonamide], the Ki in assay [1] came out at 14.4 nM; in assay [2], 0.38 nM.
For `COc1nc2c(cc1NS(=O)(=O)c1ccc(OC3CCOC3)cc1)CCN(C)CC2` (stereo not shown) [Example 82, N-(2-methoxy-7-methyl-6,7,8,9-tetrahydro-5H-pyrido[2,3-d]azepin-3-yl)-4-(tetrahydrofuran-3-yloxy)benzenesulfonamide] the same measures were 342 nM and 4.37 nM.
For `CCN1CCc2cc(NS(=O)(=O)c3ccc(OC4CCCC4)cc3)c(OC)nc2CC1` [Example 63, 4-(cyclopentyloxy)-N-(7-ethyl-2-methoxy-6,7,8,9-tetrahydro-5H-pyrido[2,3-d]azepin-3-yl)benzenesulfonamide] the same measures were 11.4 nM and 0.32 nM.
As to `CCCN1CCc2cc(NS(=O)(=O)c3ccc(OCC)cc3)c(OC)nc2CC1` [Example 50, 4-ethoxy-N-(2-methoxy-7-propyl-6,7,8,9-tetrahydro-5H-pyrido[2,3-d]azepin-3-yl)benzenesulfonamide], the values for the Ki in assay [1] and in assay [2] were 337 nM and 3.2 nM, respectively.
The like results for `CCN1CCc2cc(NS(=O)(=O)c3ccc(OC4CCCC4)nc3)c(OC)nc2CC1` [Example 2, 6-(Cyclopentyloxy)-N-(7-ethyl-2-methoxy-6,7,8,9-tetrahydro-5H-pyrido[2,3-d]azepin-3-yl)pyridine-3-sulfonamide] were, in that order, 76 nM and 0.859 nM.
For `COc1nc2c(cc1NS(=O)(=O)c1ccc([C@]3(F)C[C@@H](C)C3)nc1)CCN(C)CC2` [Example 25, 6-(cis-1-fluoro-3-methylcyclobutyl)-N-(2-methoxy-7-methyl-6,7,8,9-tetrahydro-5H-pyrido[2,3-d]azepin-3-yl)pyridine-3-sulfonamide] the same measures were 542 nM and 5.07 nM.
For `CCN1CCc2cc(NS(=O)(=O)c3ccc(C4(F)CCCCC4)nc3)c(OC)nc2CC1` [Example 112, N-(7-ethyl-2-methoxy-6,7,8,9-tetrahydro-5H-pyrido[2,3-d]azepin-3-yl)-6-(1-fluorocyclohexyl)pyridine-3-sulfonamide] the same measures were 45.7 nM and 2.36 nM.
Consider `COc1nc2c(cc1NS(=O)(=O)c1ccc(C3CC(F)(F)CCO3)cc1)CCN(C)CC2` (single isomer, unassigned) [Example 42], for which the Ki in assay [1] came out at 402 nM; in assay [2] it was 5.91 nM.
The like results for `COc1nc2c(cc1NS(=O)(=O)c1ccc(OC(C)(C)C)nc1)CCN(C)CC2` [Example 103, 6-tert-butoxy-N-(2-methoxy-7-methyl-6,7,8,9-tetrahydro-5H-pyrido[2,3-d]azepin-3-yl)pyridine-3-sulfonamide] were, in that order, 45.2 nM and 1.85 nM.
Take `CCO[C@H]1C[C@@](F)(c2ccc(S(=O)(=O)Nc3cc4c(nc3OC)CCN(CC)CC4)cc2)C1` [Example 48, 4-(trans-3-ethoxy-1-fluorocyclobutyl)-N-(7-ethyl-2-methoxy-6,7,8,9-tetrahydro-5H-pyrido[2,3-d]azepin-3-yl)benzenesulfonamide]: the results for the Ki in assay [1] and in assay [2] were 933 nM and 7.25 nM, respectively.
For `COc1nc2c(cc1NS(=O)(=O)c1ccc(C3(F)CCCCC3)nc1)CCN(C)CC2` [Example 19, 6-(1-fluorocyclohexyl)-N-(2-methoxy-7-methyl-6,7,8,9-tetrahydro-5H-pyrido[2,3-d]azepin-3-yl)pyridine-3-sulfonamide] the same measures were 91.2 nM and 2.76 nM.
The like results for `COc1nc2c(cc1NS(=O)(=O)c1ccc(C(C)OC)cc1)CCN(C)CC2` (stereo not shown) [Example 32, 4-(1-methoxyethyl)-N-(2-methoxy-7-methyl-6,7,8,9-tetrahydro-5H-pyrido[2,3-d]azepin-3-yl)benzenesulfonamide] were, in that order, 204 nM and 1.05 nM.
For `COc1nc2c(cc1NS(=O)(=O)c1ccc(C)cc1)CCN(C)CC2` [Example 5, N-(2-Methoxy-7-methyl-6,7,8,9-tetrahydro-5H-pyrido[2,3-d]azepin-3-yl)-4-methylbenzenesulfonamide] the same measures were 333 nM and 3.72 nM.
Turning to `COc1nc2c(cc1NS(=O)(=O)c1ccc(OC3CCCC3)cc1)CCN(C)CC2` [Example 46, 4-(cyclopentyloxy)-N-(2-methoxy-7-methyl-6,7,8,9-tetrahydro-5H-pyrido[2,3-d]azepin-3-yl)benzenesulfonamide], the Ki was 3.21 nM in assay [1] and 0.48 nM in assay [2].
The like results for `COc1nc2c(cc1NS(=O)(=O)c1ccc([C@@H]3CCCCO3)c(F)c1)CCN(C)CC2` [Example 111, 3-fluoro-N-(2-methoxy-7-methyl-6,7,8,9-tetrahydro-5H-pyrido[2,3-d]azepin-3-yl)-4-[(2S)-tetrahydro-2H-pyran-2-yl]benzenesulfonamide] were, in that order, 100 nM and 2.3 nM.
For `CCN1CCc2cc(NS(=O)(=O)c3ccc([C@]4(O)C[C@@H](OC)C4)nc3)c(OC)nc2CC1` [Example 23, N-(7-ethyl-2-methoxy-6,7,8,9-tetrahydro-5H-pyrido[2,3-d]azepin-3-yl)-6-(cis-1-hydroxy-3-methoxycyclobutyl)pyridine-3-sulfonamide] the same measures were > 4600 nM and > 459 nM.
Consider `COc1nc2c(cc1NS(=O)(=O)c1ccc([C@H]3CC[C@@H](OC)CC3)cc1)CCN(C)CC2` [Example 92, 4-(cis-4-methoxycyclohexyl)-N-(2-methoxy-7-methyl-6,7,8,9-tetrahydro-5H-pyrido[2,3-d]azepin-3-yl)benzenesulfonamide], for which the Ki worked out at 600 nM in assay [1] and 5.53 nM in assay [2].
On to `COc1nc2c(cc1NS(=O)(=O)c1cnc(OC3CCC3)nc1)CCN(C)CC2` [Example 116, 2-(cyclobutyloxy)-N-(2-methoxy-7-methyl-6,7,8,9-tetrahydro-5H-pyrido[2,3-d]azepin-3-yl)pyrimidine-5-sulfonamide], for which the Ki amounted to 379 nM in assay [1] and 7.17 nM in assay [2].
In the case of `COc1nc2c(cc1NS(=O)(=O)c1ccc(C3(C(F)(F)F)CC3)cc1)CCN(C)CC2` [Example 55, N-(2-methoxy-7-methyl-6,7,8,9-tetrahydro-5H-pyrido[2,3-d]azepin-3-yl)-4-[1-(trifluoromethyl)cyclopropyl]benzenesulfonamide], the values for the Ki in assay [1] and in assay [2] were 29.1 nM and 0.52 nM, respectively.

Values taken from patent US10590128B2, “6,7,8,9-tetrahydro-5H-pyrido[2,3-d]azepine dopamine D3 ligands” (Pfizer Inc., priority 2016, dated 2020).
